Laboratory results from ChEMBL document CHEMBL4616628, “Unexpected small molecules as novel SIRT2 suicide inhibitors” (Bioorg Med Chem, 2020).
The source made the active and inactive calls. No cut-off for these calls is given here.

Legend:
[1] = target: T1, NAD-dependent protein deacetylase sirtuin-2 (Homo sapiens) (UniProt Q8IXJ6); assay: Inhibition of SIRT2 deacetylation activity (unknown origin) assessed as increase in substrate apparent Km at 2 uM using H4K8Ac (3 to 13 residues) as substrate
T1 sequence (whole entry): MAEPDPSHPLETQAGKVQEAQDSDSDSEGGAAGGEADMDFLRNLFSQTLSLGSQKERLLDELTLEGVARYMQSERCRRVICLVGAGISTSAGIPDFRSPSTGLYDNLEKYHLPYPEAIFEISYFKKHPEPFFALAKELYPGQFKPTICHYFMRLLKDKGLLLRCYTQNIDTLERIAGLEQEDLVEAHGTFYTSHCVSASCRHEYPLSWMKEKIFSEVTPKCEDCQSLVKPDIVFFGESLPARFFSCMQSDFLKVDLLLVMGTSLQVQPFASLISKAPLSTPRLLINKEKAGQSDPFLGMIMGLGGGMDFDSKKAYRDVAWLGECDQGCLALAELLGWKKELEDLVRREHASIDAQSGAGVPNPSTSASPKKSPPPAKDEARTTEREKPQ

[2] = target: T2, NAD-dependent protein deacetylase sirtuin-3, mitochondrial (Homo sapiens, UniProt Q9NTG7); assay: Inhibition of SIRT3 deacetylation activity (unknown origin) using H3K9Ac (4 to 15 residues) as substrate by HPLC analysis
T2 sequence (Q9NTG7 whole entry): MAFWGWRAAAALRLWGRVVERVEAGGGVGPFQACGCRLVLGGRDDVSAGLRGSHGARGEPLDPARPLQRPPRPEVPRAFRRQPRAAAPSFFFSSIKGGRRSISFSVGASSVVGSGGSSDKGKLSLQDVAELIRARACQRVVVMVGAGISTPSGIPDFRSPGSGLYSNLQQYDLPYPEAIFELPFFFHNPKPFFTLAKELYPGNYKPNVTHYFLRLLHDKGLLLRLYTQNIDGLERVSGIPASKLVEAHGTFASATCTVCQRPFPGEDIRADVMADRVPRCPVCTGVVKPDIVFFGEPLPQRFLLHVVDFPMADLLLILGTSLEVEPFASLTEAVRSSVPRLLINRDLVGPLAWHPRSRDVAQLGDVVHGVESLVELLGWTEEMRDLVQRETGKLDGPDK

Homo sapiens [3] = species on record: Homo sapiens; assay: Selectivity ratio of IC50 for inhibition of SIRT5 desuccinylation activity (unknown origin) to IC50 for inhibition of SIRT2 deacetylation activity (unknown origin)
[4] = target: T3, NAD-dependent protein deacetylase sirtuin-2 (Homo sapiens, UniProt Q8IXJ6); assay: Inhibition of SIRT2 debenzoylation activity (unknown origin) using benzoylated histone H4K8 peptide (3 to 13 residues ) as substrate by HPLC analysis
T3 sequence (Q8IXJ6 whole entry): T1 sequence (whole entry)

[5] = target: T3, NAD-dependent protein deacetylase sirtuin-2; assay: Inhibition of SIRT2 deacetylation activity (unknown origin) using H4K8Ac (3 to 13 residues) as substrate by HPLC analysis
Homo sapiens [6] = species on record: Homo sapiens; assay: Selectivity ratio of IC50 for inhibition of SIRT3 deacetylation activity (unknown origin) to IC50 for inhibition of SIRT2 deacetylation activity (unknown origin)
[7] = target: T3, NAD-dependent protein deacetylase sirtuin-2; assay: Inhibition of SIRT2 deacetylation activity (unknown origin) using H3K9Ac ( 4 to 15 residues) as substrate by HPLC analysis
[8] = target: NAD-dependent protein deacylase sirtuin-5, mitochondrial (Homo sapiens, UniProt Q9NXA8); assay: Inhibition of SIRT5 desuccinylation activity (unknown origin) using H3K9Su (4 to 15 residues) as substrate by HPLC analysis
Chain of NAD-dependent protein deacylase sirtuin-5, mitochondrial (Q9NXA8 whole entry, the tested form may be a part): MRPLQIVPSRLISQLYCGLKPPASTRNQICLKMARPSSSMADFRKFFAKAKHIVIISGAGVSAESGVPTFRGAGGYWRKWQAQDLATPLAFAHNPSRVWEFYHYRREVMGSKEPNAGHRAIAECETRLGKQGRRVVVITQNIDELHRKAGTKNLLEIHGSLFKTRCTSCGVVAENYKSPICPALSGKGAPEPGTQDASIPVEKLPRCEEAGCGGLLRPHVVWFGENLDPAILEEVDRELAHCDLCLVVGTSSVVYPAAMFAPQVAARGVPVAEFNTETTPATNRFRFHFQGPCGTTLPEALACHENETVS

[9] = target: T1, NAD-dependent protein deacetylase sirtuin-2 (Homo sapiens); assay: Irreversible inhibition of SIRT2 deacetylation activity (unknown origin) up to 40 uM using H4K8Ac (3 to 13 residues) as substrate
Homo sapiens [10] = species on record: Homo sapiens; assay: Selectivity ratio of IC50 for inhibition of SIRT1 deacetylation activity (unknown origin) to IC50 for inhibition of SIRT2 deacetylation activity (unknown origin)
[11] = target: T4, NAD-dependent protein deacetylase sirtuin-1 (Homo sapiens, UniProt Q96EB6); assay: Inhibition of SIRT1 deacetylation activity (unknown origin) using H3K9Ac (4 to 15 residues) as substrate by HPLC analysis
T4 sequence (Q96EB6 whole entry): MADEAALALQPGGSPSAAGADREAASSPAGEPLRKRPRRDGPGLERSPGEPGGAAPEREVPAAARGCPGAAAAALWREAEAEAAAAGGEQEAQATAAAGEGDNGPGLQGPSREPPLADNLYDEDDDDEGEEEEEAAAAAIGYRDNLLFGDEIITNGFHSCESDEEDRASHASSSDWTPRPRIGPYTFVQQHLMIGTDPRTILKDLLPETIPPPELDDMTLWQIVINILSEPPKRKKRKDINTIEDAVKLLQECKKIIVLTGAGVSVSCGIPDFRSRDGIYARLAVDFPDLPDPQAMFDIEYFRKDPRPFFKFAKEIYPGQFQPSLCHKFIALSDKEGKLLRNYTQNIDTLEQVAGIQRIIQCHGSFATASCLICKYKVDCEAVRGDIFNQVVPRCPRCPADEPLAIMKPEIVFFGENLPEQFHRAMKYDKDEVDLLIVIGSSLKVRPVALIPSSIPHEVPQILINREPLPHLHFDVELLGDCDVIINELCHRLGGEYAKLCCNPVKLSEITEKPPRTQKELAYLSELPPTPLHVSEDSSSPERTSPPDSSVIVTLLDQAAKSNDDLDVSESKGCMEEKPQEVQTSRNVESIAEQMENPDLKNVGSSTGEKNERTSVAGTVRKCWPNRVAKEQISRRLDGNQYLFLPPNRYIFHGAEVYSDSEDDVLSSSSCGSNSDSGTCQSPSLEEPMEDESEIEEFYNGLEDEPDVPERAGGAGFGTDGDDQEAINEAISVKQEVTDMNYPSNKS

[12] = target: T3, NAD-dependent protein deacetylase sirtuin-2; assay: Inhibition of SIRT2 defatty-acylation activity (unknown origin) using H4K8-Myr (3 to 13 residues) as substrate by HPLC analysis

Structure (SMILES) | inhibition [1] | IC50 [2] [µM] | Ratio IC50 (Homo sapiens [3]) | IC50 [4] [µM] | IC50 [5] [µM] | Ratio IC50 (Homo sapiens [6]) | IC50 [7] [µM] | IC50 [8] [µM] | inhibition [9] | Ratio IC50 (Homo sapiens [10]) | IC50 [11] [µM] | IC50 [12] [µM]
O=C(On1nnc2ccccc21)c1c[nH]c2ccccc12 | Active | > 200 | 10 | 81 | 22.1 | 10 | 14.3 | > 200 | Active | 10 | > 200 | 73.6
O=C(On1nnc2ccccc21)c1cc[nH]c1 |  | > 200 |  |  |  |  | 56.6 | > 200 |  |  | > 200 | 
O=C(On1nnc2ccccc21)c1ccc[nH]1 |  | > 200 |  |  |  |  | 42.7 | > 200 |  |  | > 200 | 
O=C(On1nnc2ncccc21)c1c[nH]c2ccc(Br)cc12 |  |  |  |  |  |  | 77.1 | > 200 |  |  | 40.3 | 
Cc1ccc2[nH]cc(C(=O)On3nnc4ccccc43)c2c1 |  | 84.9 |  |  |  |  | 74 | > 200 |  |  | 51.9 | 
Cc1cc(C)nc(SCC(=O)Nc2ncc(Cc3cccc4ccccc34)s2)n1 |  | > 200 |  |  |  |  |  | > 200 |  |  | > 200 | 
